Data set [1] has as its target T1, Oxysterol-binding protein 1 (Homo sapiens, UniProt P22059).
T1 sequence (P22059 whole entry): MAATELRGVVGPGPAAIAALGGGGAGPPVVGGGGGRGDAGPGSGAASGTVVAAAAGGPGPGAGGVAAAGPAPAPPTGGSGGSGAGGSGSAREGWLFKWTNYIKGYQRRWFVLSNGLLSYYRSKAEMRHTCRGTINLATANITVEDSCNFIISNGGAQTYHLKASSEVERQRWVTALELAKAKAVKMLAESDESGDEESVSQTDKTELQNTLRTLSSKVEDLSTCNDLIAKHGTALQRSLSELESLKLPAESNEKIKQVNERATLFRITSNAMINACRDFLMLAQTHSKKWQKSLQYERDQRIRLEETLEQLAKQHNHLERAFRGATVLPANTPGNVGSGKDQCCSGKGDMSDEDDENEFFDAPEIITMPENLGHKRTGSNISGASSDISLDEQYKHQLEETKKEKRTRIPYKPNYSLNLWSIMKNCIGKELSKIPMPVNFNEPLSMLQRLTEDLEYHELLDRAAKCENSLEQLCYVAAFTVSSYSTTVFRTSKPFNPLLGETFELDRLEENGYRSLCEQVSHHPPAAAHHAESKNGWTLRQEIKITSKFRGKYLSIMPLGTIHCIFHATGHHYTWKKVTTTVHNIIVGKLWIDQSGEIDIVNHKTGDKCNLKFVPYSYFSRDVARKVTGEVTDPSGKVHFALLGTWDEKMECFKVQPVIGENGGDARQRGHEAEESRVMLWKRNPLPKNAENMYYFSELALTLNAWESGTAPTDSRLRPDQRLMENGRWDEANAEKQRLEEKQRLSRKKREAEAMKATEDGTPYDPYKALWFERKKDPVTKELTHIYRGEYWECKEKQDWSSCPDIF
The data set can be described thus: Binding affinity to OSBP (unknown origin) ORD domain assessed as dissociation constant by FRET assay.

Another data set has as its system A549. In words: cells. As to conditions: Homo sapiens, A549, 72 h.
Another data set deals with MDA-MB-231. The data set can be described thus: cells. The settings on record: Homo sapiens, MDA-MB-231, 72 h.
In the next data set the test system is MCF7. The data set can be described thus: cells. The settings on record: Homo sapiens, MCF7, 72 h.
Another data set relates to PC-3. In words: cells. The settings on record: Homo sapiens, PC-3, 72 h.
The nature of data set [2]: in vitro. The settings on record: human, RPE-1 cells (TERT-RPE1).
Description: Cytotoxicity against human RPE-1 cells assessed as inhibition of cell proliferation incubated for 72 hrs by celltiter-glo assay
Data set [3] can be described thus: in vitro. The settings on record: human, MRC5 cells.
Description: Cytotoxicity against human MRC5 cells assessed as inhibition of cell proliferation incubated for 72 hrs by celltiter-glo assay
Data set [4] can be described thus: in vitro. As to conditions: human, HeLa cells.
Description: Cytotoxicity against human HeLa cells assessed as inhibition of cell proliferation incubated for 72 hrs by celltiter-glo assay

Description for A549: Cytotoxicity against human A549 cells assessed as inhibition of cell proliferation incubated for 72 hrs by celltiter-glo assay
Description for MCF7: Cytotoxicity against human MCF7 cells assessed as inhibition of cell proliferation incubated for 72 hrs by celltiter-glo assay
Description for MDA-MB-231: Cytotoxicity against human MDA-MB-231 cells assessed as inhibition of cell proliferation incubated for 72 hrs by celltiter-glo assay
Description for PC-3: Cytotoxicity against human PC-3 cells assessed as inhibition of cell proliferation incubated for 72 hrs by celltiter-glo assay

As for `CC(C)=CCc1c(O)cc(/C=C/c2cc(O)c3c(c2)C[C@@H]2C(C)(C)[C@H](O)CC[C@@]2(C)O3)cc1O` [SCHWEINFURTHIN G], in data set [1], the Kd is 22 nM. The IC50 stood at 500 nM with A549, 300 nM in the data set with MDA-MB-231, 1000 nM with MCF7 and 300 nM in the data set on PC-3. Further, the figures for the IC50 at 72 h in “in vitro [2]”, in the data set “in vitro [3]” and in the data set “in vitro [4]” were 400 nM, 300 nM and 100 nM, respectively.

Source of the values: ChEMBL document CHEMBL6087453, “Minimalist Natural ORPphilin Macarangin B Delineates OSBP Biological Function” (J Med Chem, 2025).
